Results as given in patent US20100105655A1, “NOVEL COMPOUNDS 515” (ASTRAZENECA AB, priority 2008, published 2010).

The compounds below were run against T1, IGFR kinase (Homo sapiens, UniProt P08069) (assay: Enzyme assay (c), IGFR kinase, Caliper LabChip). Settings: 30 nM IGFR kinase, 6 uM ATP, 3 uM peptide mix; read-out: IGFR IC50.
T1 construct: purchased Millipore
Format: biochemical

T1 sequence (P08069 31-1367): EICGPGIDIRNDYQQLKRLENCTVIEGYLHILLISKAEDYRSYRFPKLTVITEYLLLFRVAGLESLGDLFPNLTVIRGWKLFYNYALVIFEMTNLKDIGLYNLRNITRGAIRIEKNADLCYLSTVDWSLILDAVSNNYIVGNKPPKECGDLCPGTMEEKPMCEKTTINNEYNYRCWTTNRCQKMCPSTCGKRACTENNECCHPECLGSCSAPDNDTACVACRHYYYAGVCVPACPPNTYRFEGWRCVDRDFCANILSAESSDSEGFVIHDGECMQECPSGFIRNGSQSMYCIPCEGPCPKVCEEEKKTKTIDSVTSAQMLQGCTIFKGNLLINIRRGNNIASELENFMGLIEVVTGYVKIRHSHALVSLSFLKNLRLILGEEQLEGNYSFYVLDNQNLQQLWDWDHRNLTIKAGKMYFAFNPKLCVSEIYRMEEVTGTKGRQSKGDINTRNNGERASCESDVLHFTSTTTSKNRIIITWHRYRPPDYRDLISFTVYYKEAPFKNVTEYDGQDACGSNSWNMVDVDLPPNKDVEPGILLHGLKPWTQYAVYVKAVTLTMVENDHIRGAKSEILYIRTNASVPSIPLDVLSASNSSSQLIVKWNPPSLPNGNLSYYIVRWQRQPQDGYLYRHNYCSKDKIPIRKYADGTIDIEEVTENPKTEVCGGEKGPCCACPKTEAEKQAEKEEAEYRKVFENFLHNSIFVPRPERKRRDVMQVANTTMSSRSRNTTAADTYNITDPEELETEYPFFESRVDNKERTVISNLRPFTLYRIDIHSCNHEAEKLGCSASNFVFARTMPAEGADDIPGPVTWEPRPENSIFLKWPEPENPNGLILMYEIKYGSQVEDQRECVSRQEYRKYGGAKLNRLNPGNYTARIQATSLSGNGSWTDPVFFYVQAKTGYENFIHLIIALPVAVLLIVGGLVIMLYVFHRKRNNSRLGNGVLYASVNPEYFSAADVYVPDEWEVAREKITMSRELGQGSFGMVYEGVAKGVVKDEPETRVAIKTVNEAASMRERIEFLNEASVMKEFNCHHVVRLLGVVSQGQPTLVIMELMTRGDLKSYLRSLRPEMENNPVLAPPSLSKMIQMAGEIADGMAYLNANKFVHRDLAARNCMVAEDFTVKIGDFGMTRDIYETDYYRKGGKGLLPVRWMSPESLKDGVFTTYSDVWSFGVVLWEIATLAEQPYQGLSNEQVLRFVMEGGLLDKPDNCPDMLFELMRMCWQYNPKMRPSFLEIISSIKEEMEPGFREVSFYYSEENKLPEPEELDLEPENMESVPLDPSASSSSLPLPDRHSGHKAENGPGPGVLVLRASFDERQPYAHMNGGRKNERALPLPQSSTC

Row | IC50 [nM] | Structure (SMILES)
1 | 17 | COCCCNCc1ccc(Nc2ncc(Cl)c(-c3cnc4ccccn34)n2)c(OC)c1 [Example 21.9, 5-chloro-4-imidazo[1,2-a]pyridin-3-yl-N-[2-methoxy-4-[(3-methoxypropylamino)methyl]phenyl]pyrimidin-2-amine]
2 | 21 | COc1cc(C(CO)CO)ccc1Nc1ncc(Cl)c(-c2cnc3c(F)cccn23)n1 [Example 181, 2-[4-[[5-chloro-4-(8-fluoroimidazo[1,2-a]pyridin-3-yl)pyrimidin-2-yl]amino]-3-methoxy-phenyl]propane-1,3-diol]
3 | 14 | CNCC(=O)N1CCN(c2ccc(Nc3ncc(C)c(-c4cnn5ccccc45)n3)c(OC)c2)CC1 [Example 160, 1-[4-[3-methoxy-4-[(5-methyl-4-pyrazolo[1,5-a]pyridin-3-yl-pyrimidin-2-yl)amino]phenyl]piperazin-1-yl]-2-(methylamino)ethanone]
4 | 14 | COc1cc(N2CC3CN(C(=O)[C@H](C)O)CC(C2)O3)ccc1Nc1ncc(Cl)c(-c2cnc3c(F)cccn23)n1 [Example 213, (2S)-1-[3-[4-[[5-chloro-4-(8-fluoroimidazo[1,2-a]pyridin-3-yl)pyrimidin-2-yl]amino]-3-methoxy-phenyl]-9-oxa-3,7-diazabicyclo[3.3.1]nonan-7-yl]-2-hydroxy-propan-1-one]
5 | 15 | CNC(=O)CN1CCN(c2ccc(Nc3ncc(Cl)c(-c4cnc5ccccn45)n3)c(OC)c2)CC1 [Example 66, 2-[4-[4-[(5-chloro-4-imidazo[1,2-a]pyridin-3-yl-pyrimidin-2-yl)amino]-3-methoxy-phenyl]piperazin-1-yl]-N-methyl-acetamide]
6 | 3 | COc1cc(N2CCNCC2=O)ccc1Nc1ncc(Cl)c(-c2cnc3c(F)cccn23)n1 [Example 224, 1-[4-[[5-chloro-4-(8-fluoroimidazo[1,2-a]pyridin-3-yl)pyrimidin-2-yl]amino]-3-methoxy-phenyl]piperazin-2-one]
7 | 10 | COc1cc(N2CCN(C(=O)[C@@H](C)O)CC2)ccc1Nc1ncc(Cl)c(-c2cnc3cc(C)ccn23)n1 [Example 257, (2R)-1-[4-[4-[[5-chloro-4-(7-methylimidazo[1,2-a]pyridin-3-yl)pyrimidin-2-yl]amino]-3-methoxy-phenyl]piperazin-1-yl]-2-hydroxy-propan-1-one]
8 | 21 | CCc1ccn2c(-c3nc(Nc4ccc(N5CCN(C(C)=O)CC5)cc4OC)ncc3Cl)cnc2c1 [Example 126.8, 1-[4-[4-[[5-chloro-4-(7-ethylimidazo[1,2-a]pyridin-3-yl)pyrimidin-2-yl]amino]-3-methoxyphenyl]piperazin-1-yl]ethanone]
9 | 11 | COc1cc(N2CCN(S(=O)(=O)N(C)C)CC2)ccc1Nc1ncc(Cl)c(-c2cnc3ccccn23)n1 [Example 3.7, 4-[4-[(5-chloro-4-imidazo[1,2-a]pyridin-3-yl-pyrimidin-2-yl)amino]-3-methoxy-phenyl]-N,N-dimethyl-piperazine-1-sulfonamide]
10 | 17 | COc1cc(C(=O)N2C[C@@H]3C[C@H]2CN3)ccc1Nc1ncc(Cl)c(-c2cnc3ccccn23)n1 [Example 29, [4-[(5-chloro-4-imidazo[1,2-a]pyridin-3-yl-pyrimidin-2-yl)amino]-3-methoxy-phenyl]-[(1S,4S)-2,5-diazabicyclo[2.2.1]heptan-5-yl]methanone]
11 | 32 | COc1cc(C2CCN(C(=O)[C@@H](C)O)CC2)ccc1Nc1ncc(C)c(-c2cnc3c(F)cccn23)n1 [Example 200, (2R)-1-[4-[4-[[4-(8-fluoroimidazo[1,2-a]pyridin-3-yl)-5-methyl-pyrimidin-2-yl]amino]-3-methoxy-phenyl]-1-piperidyl]-2-hydroxy-propan-1-one]
12 | 54 | COc1cc(C2CCN(C(C)=O)CC2)ccc1Nc1ncc(F)c(-c2cnc3ccccn23)n1 [Example 78, 1-[4-[4-[(5-fluoro-4-imidazo[1,2-a]pyridin-3-yl-pyrimidin-2-yl)amino]-3-methoxy-phenyl]-1-piperidyl]ethanone]
13 | 9 | COc1cc(N2CCN(C(=O)CO)CC2)ccc1Nc1ncc(Cl)c(-c2cnc3cc(C)ccn23)n1 [Example 251, 1-[4-[4-[[5-chloro-4-(7-methylimidazo[1,2-a]pyridin-3-yl)pyrimidin-2-yl]amino]-3-methoxy-phenyl]piperazin-1-yl]-2-hydroxy-ethanone]
14 | 8 | COc1cc(C2CN(C(=O)[C@@H](C)O)C2)ccc1Nc1ncc(Cl)c(-c2cnn3ccccc23)n1 [Example 135B]
15 | 21 | COc1cc(CC(=O)NC2CCNC2)ccc1Nc1ncc(Cl)c(-c2cnc3ccccn23)n1 (centres unmarked) [Example 35, 2-[4-[(5-chloro-4-imidazo[1,2-a]pyridin-3-yl-pyrimidin-2-yl)amino]-3-methoxy-phenyl]-N-pyrrolidin-3-yl-acetamide]
16 | 18 | COc1cc(N2CC[C@@H](NC(C)=O)C2)ccc1Nc1ncc(Cl)c(-c2cnc3ccccn23)n1 [Example 3.23, N-((3R)-1-(4-(5-chloro-4-(imidazo[1,2-a]pyridin-3-yl)pyrimidin-2-ylamino)-3-methoxyphenyl)pyrrolidin-3-yl)acetamide]

Row | IC50 [nM] | Structure (SMILES)
17 | 43 | COc1cc(N2CC[C@H](N(C)C)C2)ccc1Nc1ncc(Cl)c(-c2cnc3ccccn23)n1 [Example 3.16, 5-chloro-N-[4-[(3S)-3-dimethylaminopyrrolidin-1-yl]-2-methoxy-phenyl]-4-imidazo[1,2-a]pyridin-3-yl-pyrimidin-2-amine]
18 | 21 | COc1cc(N2CCN(C(C)=O)C(CO)C2)ccc1Nc1ncc(Cl)c(-c2cnc3ccccn23)n1 (centres unmarked) [Example 3.38, 1-[4-[4-[(5-chloro-4-imidazo[1,2-a]pyridin-3-yl-pyrimidin-2-yl)amino]-3-methoxy-phenyl]-2-(hydroxymethyl)piperazin-1-yl]ethanone]
19 | 110 | COc1ccc(N2CCNCC2)cc1Nc1ncc(C)c(-c2cnc3c(F)cccn23)n1 [Example 199, 4-(8-fluoroimidazo[1,2-a]pyridin-3-yl)-N-(2-methoxy-5-piperazin-1-yl-phenyl)-5-methyl-pyrimidin-2-amine]
20 | 96 | COc1cc(C2CCN(C(C)=O)CC2)ccc1Nc1ncc(C2CC2)c(-c2cnc3c(F)cccn23)n1 [Example 202, 1-[4-[4-[[5-cyclopropyl-4-(8-fluoroimidazo[1,2-a]pyridin-3-yl)pyrimidin-2-yl]amino]-3-methoxy-phenyl]-1-piperidyl]ethanone]
21 | 43 | COc1cc(N2CCN(C(C)=O)CC2)ccc1Nc1ncc(Cl)c(-c2cnc3cc(CN4CCOCC4)ccn23)n1 [Example 187, 1-[4-[4-[[5-chloro-4-[7-(morpholinomethyl)imidazo[1,2-a]pyridin-3-yl]pyrimidin-2-yl]amino]-3-methoxy-phenyl]piperazin-1-yl]ethanone]
22 | 190 | COc1cc(N2CCN(CCO)[C@@H](C)C2)ccc1Nc1ncc(C)c(-c2cnc3ccccn23)n1 [Example 271, 2-[(2S)-4-[4-[(4-imidazo[1,2-a]pyridin-3-yl-5-methyl-pyrimidin-2-yl)amino]-3-methoxy-phenyl]-2-methyl-piperazin-1-yl]ethanol]
23 | 31 | COc1cc(C)c(Nc2ncc(Br)c(-c3cnc4ccccn34)n2)cc1OC [Example 124, 5-bromo-N-(4,5-dimethoxy-2-methyl-phenyl)-4-imidazo[1,2-a]pyridin-3-yl-pyrimidin-2-amine]
24 | 8 | CNCC(=O)N1CCC(c2ccc(Nc3ncc(C)c(-c4cnn5ccccc45)n3)c(OC)c2)CC1 [Example 237, 1-[4-[3-methoxy-4-[(5-methyl-4-pyrazolo[1,5-a]pyridin-3-yl-pyrimidin-2-yl)amino]phenyl]-1-piperidyl]-2-(methylamino)ethanone]
25 | 31 | COc1cc(C(C)C(=O)N2CCOCC2)ccc1Nc1ncc(Cl)c(-c2cnc3ccccn23)n1 (centres unmarked) [Example 3.39, 2-[4-[(5-chloro-4-imidazo[1,2-a]pyridin-3-yl-pyrimidin-2-yl)amino]-3-methoxy-phenyl]-1-morpholino-propan-1-one]
26 | 98 | COc1cc(CC(=O)N2CCNCC2)ccc1Nc1ncc(Cl)c(-c2cnc3ccccn23)n1 [Example 34, 2-[4-[(5-chloro-4-imidazo[1,2-a]pyridin-3-yl-pyrimidin-2-yl)amino]-3-methoxy-phenyl]-1-piperazin-1-yl-ethanone]
27 | 20 | COc1cc(OC2CCN(S(C)(=O)=O)CC2)ccc1Nc1ncc(Cl)c(-c2cnc3ccccn23)n1 [Example 8, 5-chloro-4-imidazo[1,2-a]pyridin-3-yl-N-[2-methoxy-4-[(1-methylsulfonyl-4-piperidyl)oxy]phenyl]pyrimidin-2-amine]
28 | 28 | COc1cc(N2CCN(CC(C)(C)O)CC2)ccc1Nc1ncc(C)c(-c2cnc3ccccn23)n1 [Example 106, 1-[4-[4-[(4-imidazo[1,2-a]pyridin-3-yl-5-methyl-pyrimidin-2-yl)amino]-3-methoxy-phenyl]piperazin-1-yl]-2-methyl-propan-2-ol]
29 | 95 | COc1ccc(N2CC3CNCC(C2)O3)cc1Nc1ncc(Cl)c(-c2cnn3ccccc23)n1 [Example 189, 5-chloro-N-[2-methoxy-5-(9-oxa-3,7-diazabicyclo[3.3.1]nonan-7-yl)phenyl]-4-yrazolo[1,5-a]pyridin-3-yl-pyrimidin-2-amine]
30 | 39 | COc1cc(N2CCN(C(C)(C)CO)CC2)ccc1Nc1ncc(C)c(-c2cnc3cc(C)ccn23)n1 [Example 262, 2-[4-[3-methoxy-4-[[5-methyl-4-(7-methylimidazo[1,2-a]pyridin-3-yl)pyrimidin-2-yl]amino]phenyl]piperazin-1-yl]-2-methyl-propan-1-ol]
31 | 23 | COc1cc(N2CCN(C[C@H](O)CO)CC2)ccc1Nc1ncc(C)c(-c2cnc3ccccn23)n1 [Example 268, (2S)-3-[4-[4-[(4-imidazo[1,2-a]pyridin-3-yl-5-methyl-pyrimidin-2-yl)amino]-3-methoxy-phenyl]piperazin-1-yl]propane-1,2-diol]
32 | 132 | COc1cc(CC(=O)O)ccc1Nc1ncc(Cl)c(-c2cnc3ccccn23)n1 [Example 34A, 2-(4-(5-chloro-4-(imidazo[1,2-a]pyridin-3-yl)pyrimidin-2-ylamino)-3-methoxyphenyl)acetic acid]
